Test results: patent US6916782B1, “Gene coding for heliomicine and use thereof” (priority 1998, dated 2005)
Bridge positions count the residues as written; N and C are the ends. Ends that are not written are not given here.

Columns and labels:
[1] = system: female mice; assay: Study of acute toxicity, intravenous injection
Experimental: Groups of 4 female mice were treated by intravenous injection of solutions of heliomicine (SEQ ID NO:2) in saline solution at doses of 1 and 10 mg/kg.

[2] = system: Aspergillus fumigatus; assay: Inhibition of growth in liquid medium, filamentous fungi (MIC); format: cell-based; details: range [a]-[b], 48 h, 30° C.
Text: (§1) This methodology was used to test for the antifungal molecules during the various purification steps, for the determination of the activity spectrum of the peptide and for the determination of the minimum inhibitory concentration (MIC) at which the peptide was active. The MIC was expressed as the concentration range [a]-[b] where [a] was the minimum concentration where the start of growth is observed and [b] the concentration for which no growth was observed.
(§2) The antifungal activity was detected by a test for inhibition of growth in a liquid medium. The spores of the fungi to be tested were suspended in a culture medium of the “potato-glucose” type. Preferably, 12 g of Potato Dextrose Broth medium (Difco) were used per 1 l of demineralized water. Two antibiotics were added to the culture medium: tetracycline (final concentration of 10 μg/ml) and cefotaxime (100 μg/ml). 10 μl of each fraction to be analysed are deposited in microtitre plates in the presence of 90 μl of culture medium containing the spores (at a final concentration of […]). The incubation was carried out in a humid chamber at 30° C. for 48 hours. Fungal growth was observed under a light microscope after 24 h and quantified after 48 hours by measuring the absorbance at 600 nm with the aid of a spectrophotometric microtitre plate reader. […]

[3] = system: Trichoderma viride; assay: as above; format: cell-based; details: range [a]-[b], 48 h, 30° C.
Text: as §1, §2

[4] = system: Candida albicans; assay: Test for detection of activity against yeasts (MIC); format: cell-based; details: range [a]-[b]
Text: as §1
(§3) The various yeast strains were incubated in a “Sabouraud” type culture medium and incubated at 30° C. for 24 h with gentle stirring. The test sample (10 μl) was deposited in microtitre plate wells to which there were added 90 μl of a dilute yeast culture whose density was adjusted to OD 600=0.001. Growth was evaluated by measuring the absorbance at 600 nm with the aid of a spectrophotometric microtitre plate reader.
(§4) - yeasts tested: Candida albicans, C. glabrata, C. tropicalis, C. krusei, C. inconspicua, Cryptococcus neoformans, Cryp. albidus, Saccharomyces cerevisiae (gift from Dr. H. Koenig, Hôpital civil, Strasbourg).

[5] = system: Candida inconspicua; assay: as above; format: cell-based; details: range [a]-[b]
Text: as §1, §3, §4

[6] = system: Candida krusei; assay: as above; format: cell-based; details: range [a]-[b]
Text: as §1, §3, §4

[7] = system: Candida tropicalis; assay: as above; format: cell-based; details: range [a]-[b]
Text: as §1, §3, §4

[8] = system: Cryptococcus albidus; assay: as above; format: cell-based; details: range [a]-[b]
Text: as §1, §3, §4

[9] = system: Cryptococcus neoformans; assay: as above; format: cell-based; details: range [a]-[b]
Text: as §1, §3, §4

[10] = system: Neurospora crassa; details: range [a]-[b], start of growth to no growth, 48 h, 30° C.
Experimental: (§5) The antifungal activity was detected by a test for inhibition of growth in a liquid medium. The spores of the fungi to be tested were suspended in a culture medium of the “potato-glucose” type. Preferably, 12 g of Potato Dextrose Broth medium (Difco) were used per 1 l of demineralized water. Two antibiotics were added to the culture medium: tetracycline (final concentration of 10 μg/ml) and cefotaxime (100 μg/ml). 10 μl of each fraction to be analysed are deposited in microtitre plates in the presence of 90 μl of culture medium containing the spores (at a final concentration of 104 spores/ml). The incubation was carried out in a humid chamber at 30° C. for 48 hours. Fungal growth was observed under a light microscope after 24 h and quantified after 48 hours by measuring the absorbance at 600 nm with the aid of a spectrophotometric microtitre plate reader.
(§6) The different mutated heliomicines were analyzed for their antifungal activity under the conditions described for the reference heliomicine against the following strains: Neurospora crassa, Fusarium culmorum and Nectria haematococca.

[11] = system: Fusarium culmorum; details: range [a]-[b], 48 h, 30° C.
Experimental: as §5, §6

[12] = system: Nectria haematococca; details: range [a]-[b], 48 h, 30° C.
Experimental: as §5, §6

With `CC[C@H](C)[C@H](NC(=O)CN)C(=O)NCC(=O)N[C@@H](C)C(=O)N[C@H](C(=O)N[C@@H](CC(C)C)C(=O)N[C@@H](CCCCN)C(=O)N[C@H](C(=O)N[C@@H](CC(C)C)C(=O)N[C@H](C(=O)N[C@H](C(=O)NCC(=O)N[C@@H](CC(C)C)C(=O)N1CCC[C@H]1C(=O)N[C@@H](C)C(=O)N[C@@H](CC(C)C)C(=O)N[C@H](C(=O)N[C@@H](CO)C(=O)N[C@@H](Cc1c[nH]c2ccccc12)C(=O)N[C@H](C(=O)N[C@@H](CCCCN)C(=O)N[C@@H](CCCNC(=N)N)C(=O)N[C@@H](CCCCN)C(=O)N[C@@H](CCCNC(=N)N)C(=O)N[C@@H](CCC(N)=O)C(=O)N[C@@H](CCC(N)=O)C(N)=O)[C@@H](C)CC)[C@@H](C)CC)[C@@H](C)O)[C@@H](C)O)C(C)C)C(C)C` [mellitin] the Toxic effects ([1]; intravenous injection, at 5 days at 1 mg) was “significant effects” and the Mortality ([1]; intravenous injection, at 5 days at 10 mg) was 100%.

With “DKLIGSCVWGAVNYTSDCNGECKRRGYKGGHCGSFANVNCWCET (disulfide 7-32, 18-40, 22-42) [heliomicine]” the MIC of heliomicine [2] was 6 to 12.5 µM, the MIC of heliomicine [3] was 1.5 to 3 µM and the MIC of heliomicine [4] was 2.5 to 5 µM. For the same molecule, the MIC of heliomicine [5] was 5 to 10 µM, the MIC of heliomicine [6] was 10 to 20 µM and the MIC of heliomicine [7] was 2.5 to 5 µM. It also gave an MIC of heliomicine [8] of 5 to 10 µM, an MIC of heliomicine [9] of 2.5 to 5 µM and an MIC of heliomicine [10] of 0.1 to 0.2 µM. For the same molecule, the MIC of heliomicine [11] was 0.2 to 0.4 µM, the MIC of heliomicine [12] was 0.4 to 0.8 µM and the Acute toxicity ([1]; intravenous injection in saline solution, doses of 1 and 10 mg/kg) was “No toxicity was demonstrated”.
